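Values below derive from 48-hour exposures of cells grown in 96-well plates, with endpoints linearly interpolated between the two concentrations bracketing the appropriate inhibition level. GI50: concentration for 50% inhibition of growth.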 Active and inactive are the calls of the source. Rule as the data show it: active = GI50 up to about 1.1 µM and inactive = higher.
What was measured:
Test in all cases: NCI tumour cell line growth inhibition, 48 h
[1] = tested on: SK-OV-3
[2] = tested on: MDA-MB-231
[3] = tested on: KM12
[4] = tested on: CCRF-CEM
[5] = tested on: BT-549
[6] = tested on: SF-539
[7] = tested on: EKVX
[8] = tested on: COLO 205
[9] = tested on: IGROV-1
[10] = tested on: RXF 393
[11] = tested on: NCI-H522
[12] = tested on: HOP-92
[13] = tested on: OVCAR-4
[14] = tested on: RPMI-8226
[15] = tested on: T47D
[16] = tested on: HCT-15
[17] = tested on: HCT-116
[18] = tested on: HL-60
[19] = tested on: A498
[20] = tested on: PC-3
[21] = tested on: UACC-257
[22] = tested on: SF-295
[23] = tested on: UO-31
[24] = tested on: SNB-75
[25] = tested on: M14
[26] = tested on: SNB-19
[27] = tested on: SK-MEL-5
[28] = tested on: SR
[29] = tested on: UACC-62
[30] = tested on: K562
[31] = tested on: SW-620
[32] = tested on: SK-MEL-2
[33] = tested on: LOX IMVI
[34] = tested on: SN12C
[35] = tested on: MDA-N
[36] = tested on: MCF7
[37] = tested on: NCI/ADR-RES
[38] = tested on: CAKI-1
[39] = tested on: OVCAR-3
[40] = tested on: NCI-H460
[41] = tested on: HOP-62
[42] = tested on: MOLT-4
[43] = tested on: NCI-H226
[44] = tested on: TK-10
[45] = tested on: HCC 2998
[46] = tested on: SF-268
[47] = tested on: 786-0
[48] = tested on: DU-145
[49] = tested on: NCI-H23
[50] = tested on: U-251
[51] = tested on: Hs-578T
[52] = tested on: OVCAR-8
[53] = tested on: OVCAR-5
[54] = tested on: MDA-MB-435
[55] = tested on: ACHN
[56] = tested on: A549
[57] = tested on: HT-29
[58] = tested on: Malme-3M
[59] = tested on: SK-MEL-28

Q: For `O=C(OCC(OC(=O)c1ccccc1)C1CC(C(O)C2CCCCC2)C(=O)O1)c1ccccc1` (configuration not stated), which GI50 [1] is on record?
A: > 100 µM (inactive)

Q: What about the GI50 [2] of the same molecule?
A: > 100 µM (inactive)

Q: And the GI50 [3]?
A: 41.8 µM (inactive)

Q: What about the GI50 [4] of the same molecule?
A: 22.5 µM (inactive)

Q: What about the GI50 [5] of the same molecule?
A: 53 µM (inactive)

Q: What about the GI50 [6] of the same molecule?
A: 25.1 µM (inactive)

Q: What about the GI50 [7] of the same molecule?
A: > 100 µM (inactive)

Q: What about the GI50 [8] of the same molecule?
A: 45.9 µM (inactive)

Q: And the GI50 [9]?
A: 32.2 µM (inactive)

Q: And the GI50 [10]?
A: > 100 µM (inactive)

Q: And the GI50 [11]?
A: 22.2 µM (inactive)

Q: And the GI50 [12]?
A: > 100 µM (inactive)

Q: And the GI50 [13]?
A: 32.7 µM (inactive)

Q: And the GI50 [14]?
A: 24.2 µM (inactive)

Q: What about the GI50 [15] of the same molecule?
A: 37.2 µM (inactive)

Q: What about the GI50 [16] of the same molecule?
A: 43.2 µM

Q: And the GI50 [17]?
A: 31.6 µM (inactive)

Q: What about the GI50 [18] of the same molecule?
A: 16.4 µM (inactive)

Q: What about the GI50 [19] of the same molecule?
A: > 100 µM (inactive)

Q: And the GI50 [20]?
A: 45.7 µM (inactive)

Q: What about the GI50 [21] of the same molecule?
A: > 100 µM (inactive)

Q: And the GI50 [22]?
A: 86.7 µM (inactive)

Q: What about the GI50 [23] of the same molecule?
A: > 100 µM (inactive)

Q: What about the GI50 [24] of the same molecule?
A: 51.4 µM (inactive)

Q: And the GI50 [25]?
A: 63.7 µM (inactive)

Q: And the GI50 [26]?
A: 59 µM (inactive)

Q: What about the GI50 [27] of the same molecule?
A: 17.3 µM (inactive)

Q: And the GI50 [28]?
A: 20.1 µM (inactive)

Q: What about the GI50 [29] of the same molecule?
A: > 100 µM (inactive)

Q: And the GI50 [30]?
A: 21.4 µM (inactive)

Q: What about the GI50 [31] of the same molecule?
A: 42.3 µM (inactive)

Q: What about the GI50 [32] of the same molecule?
A: > 100 µM (inactive)

Q: And the GI50 [33]?
A: 37.4 µM (inactive)

Q: And the GI50 [34]?
A: 47.6 µM (inactive)

Q: What about the GI50 [35] of the same molecule?
A: > 100 µM (inactive)

Q: And the GI50 [36]?
A: 31.7 µM (inactive)

Q: What about the GI50 [37] of the same molecule?
A: 23.2 µM (inactive)

Q: What about the GI50 [38] of the same molecule?
A: > 100 µM (inactive)

Q: What about the GI50 [39] of the same molecule?
A: 35.3 µM (inactive)

Q: And the GI50 [40]?
A: 25.9 µM (inactive)

Q: And the GI50 [41]?
A: 49.5 µM (inactive)

Q: And the GI50 [42]?
A: 22 µM (inactive)

Q: And the GI50 [43]?
A: 87.7 µM (inactive)

Q: What about the GI50 [44] of the same molecule?
A: > 100 µM (inactive)

Q: What about the GI50 [45] of the same molecule?
A: 47.9 µM (inactive)

Q: And the GI50 [46]?
A: 91.8 µM (inactive)

Q: And the GI50 [47]?
A: > 100 µM (inactive)

Q: What about the GI50 [48] of the same molecule?
A: > 100 µM (inactive)

Q: And the GI50 [49]?
A: > 100 µM (inactive)

Q: And the GI50 [50]?
A: 71.6 µM (inactive)

Q: What about the GI50 [51] of the same molecule?
A: > 100 µM (inactive)

Q: And the GI50 [52]?
A: 49.3 µM (inactive)

Q: And the GI50 [53]?
A: > 100 µM (inactive)

Q: And the GI50 [54]?
A: > 100 µM (inactive)

Q: And the GI50 [55]?
A: > 100 µM (inactive)

Q: What does the source list for `Nc1nnc(-c2ccco2)c(-c2ccco2)n1`?
A: GI50 [1]: > 100 µM (inactive); GI50 [2]: > 100 µM (inactive); GI50 [3]: > 100 µM (inactive); GI50 [4]: > 100 µM (inactive); GI50 [5]: > 100 µM (inactive); GI50 [6]: > 100 µM (inactive); GI50 [56]: > 100 µM (inactive); GI50 [7]: > 100 µM (inactive); GI50 [8]: > 100 µM (inactive); GI50 [9]: > 100 µM (inactive); GI50 [10]: > 100 µM (inactive); GI50 [11]: > 100 µM (inactive); GI50 [12]: > 100 µM (inactive); GI50 [13]: > 100 µM (inactive); GI50 [14]: > 100 µM (inactive); GI50 [15]: > 100 µM (inactive); GI50 [16]: > 100 µM; GI50 [17]: > 100 µM (inactive); GI50 [18]: > 100 µM (inactive); GI50 [19]: > 100 µM (inactive); GI50 [20]: > 100 µM (inactive); GI50 [21]: > 100 µM (inactive); GI50 [22]: > 100 µM (inactive); GI50 [23]: 49.9 µM (inactive); GI50 [24]: 86.9 µM (inactive); GI50 [25]: > 100 µM (inactive); GI50 [26]: > 100 µM (inactive); GI50 [27]: > 100 µM (inactive); GI50 [28]: > 100 µM (inactive); GI50 [29]: > 100 µM (inactive); GI50 [30]: > 100 µM (inactive); GI50 [31]: > 100 µM (inactive); GI50 [32]: > 100 µM (inactive); GI50 [34]: > 100 µM (inactive); GI50 [35]: > 100 µM (inactive); GI50 [36]: > 100 µM (inactive); GI50 [37]: > 100 µM (inactive); GI50 [38]: > 100 µM (inactive); GI50 [39]: > 100 µM (inactive); GI50 [40]: > 100 µM (inactive); GI50 [42]: > 100 µM (inactive); GI50 [43]: > 100 µM (inactive); GI50 [44]: > 100 µM (inactive); GI50 [45]: > 100 µM (inactive); GI50 [57]: > 100 µM (inactive); GI50 [46]: > 100 µM (inactive); GI50 [58]: > 100 µM (inactive); GI50 [47]: > 100 µM (inactive); GI50 [48]: > 100 µM (inactive); GI50 [59]: > 100 µM (inactive); GI50 [49]: > 100 µM (inactive); GI50 [50]: > 100 µM (inactive); GI50 [51]: > 100 µM (inactive); GI50 [52]: > 100 µM (inactive); GI50 [53]: > 100 µM (inactive); GI50 [54]: > 100 µM (inactive); GI50 [55]: > 100 µM (inactive)
